These results are taken from article PMC7335108, “Butyrate producing colonic Clostridiales metabolise human milk oligosaccharides and cross feed on mucin via conserved pathways” (Nature Communications, 2020).

Assay [1] addresses T1, RiLe^a/bBP (Roseburia inulinivorans, UniProt A0ACG1Y794).
T1 construct: gene LK408_15410; signal peptide removed, cleavable His6 tag, pETM11, expressed in E. coli; amine-coupled to CM5 chip
In words: surface plasmon resonance, steady state, one-site fit. Type of assay: binding. Particulars: 20 mM sodium phosphate, 150 mM NaCl, 0.005% P20, pH 6.5, 25 °C; protein immobilised on CM5 chip. (In general: Surface plasmon resonance follows binding to a sensor surface in real time, without labels.)

Assay [2] has as its target T2, RiLe^a/bBP (Roseburia inulinivorans, UniProt A0ACG1Y794).
T2 construct: gene LK408_15410; signal peptide removed, cleavable His6 tag, pETM11, expressed in E. coli; amine-coupled to CM5 chip
T2 sequence (A0ACG1Y794 20-470): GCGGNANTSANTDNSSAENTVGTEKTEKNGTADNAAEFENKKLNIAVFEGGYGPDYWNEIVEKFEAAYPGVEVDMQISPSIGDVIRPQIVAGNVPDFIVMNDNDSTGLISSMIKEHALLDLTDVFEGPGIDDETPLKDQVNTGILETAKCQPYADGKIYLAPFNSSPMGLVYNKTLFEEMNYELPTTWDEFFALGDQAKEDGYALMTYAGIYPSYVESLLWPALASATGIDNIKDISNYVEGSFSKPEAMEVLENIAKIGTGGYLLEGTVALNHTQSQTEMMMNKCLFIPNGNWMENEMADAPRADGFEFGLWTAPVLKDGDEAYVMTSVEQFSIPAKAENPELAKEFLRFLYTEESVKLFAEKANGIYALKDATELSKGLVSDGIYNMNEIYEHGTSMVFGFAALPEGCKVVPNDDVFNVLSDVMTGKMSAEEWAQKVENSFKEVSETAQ
The arrangement: surface plasmon resonance, steady state, one-site fit. The note with it: binder; read-out: KD (µM) SPR. The source says:
Both SBPs recognized distinct HMOs and ligands from host-glycans (Fig. 4, Supplementary Tables 2 and 3, Supplementary Fig. 7). […] The loss of the fucosyl unit at the terminal reducing GlcNAc reduced the affinity of RiLe^a/bBP about 5-fold for blood group H antigen triose type I (H triose type I) relative to Le^b tetraose. The specificity of RiLe^a/bBP is highlighted by the lack of affinity for lacto-N-neotetroase (LNnT), blood group A antigen triose (A triose), lactose and 2′-fucosyllactose (2′-FL). […] An equimolar mixture of Le^b, Le^a and H-triose type I oligomers promoted the growth of R. inulinivorans to a similar final OD600 as glucose (Fig. 1b, c and Fig. 4a). The uptake profiles of these ligands reflected the preference of RiLe^a/bBP, consistent with uptake by the associated transporter (Fig. 4). This was also in accord with the utilization of larger fucosylated HMO structures observed during growth on purified HMOs from mother’s milk (Supplementary Fig. 2a–c).

The target in assay [3] is T3, RiGLnbp112 (Roseburia inulinivorans, UniProt A0ACG1Y7L8).
T3 construct: gene gnpA; cleavable His6 tag, pETM11, E. coli
The experiment in a line: phosphorolysis, HPAEC-PAD of Gal1P; specific activity only. It is filed as biochemical. The note with it: 50 mM sodium phosphate, 150 mM NaCl, 0.005% Triton X-100, pH 6.5, 37 °C, 2 mM substrate.

Assay [4] deals with T4, RhLNBBP (Roseburia hominis, UniProt G2T0U7).
T4 construct: gene RHOM_04095; signal peptide removed, cleavable His6 tag, pETM11, expressed in E. coli
In words: isothermal titration calorimetry. Type of assay: binding. Particulars: 10 mM sodium phosphate, pH 6.5, 25 °C. Background: In ITC the heat of successive injections is recorded.

Assay [5] has as its target T5, RhGLnbp112 (Roseburia hominis, UniProt G2T0V2).
T5 construct: gene RHOM_04120; cleavable His6 tag, pETM11, E. coli
In words: phosphorolysis, HPAEC-PAD of Gal1P; specific activity only. Type of assay: biochemical. The note with it: 50 mM sodium phosphate, 150 mM NaCl, 0.005% Triton X-100, pH 6.5, 37 °C, 2 mM substrate.

In assay [6] the target is T6, ErLnb136 (Eubacterium ramulus, UniProt U2PDT9).
T6 construct: gene HMPREF0373_02965; single chain, domain I AA 7-224 and catalytic domain II AA 242-663; His6 tag, pETM11, E. coli; crystal SeMet-labelled
In words: X-ray crystal structure. The note with it: SeMet-labelled protein, 1.4 Å; 25 mM LNB in cryoprotectant; active site. It is filed as binding.

Assay [7] addresses T7, RhLNBBP (Roseburia hominis, UniProt G2T0U7).
T7 construct: gene RHOM_04095; signal peptide removed, cleavable His6 tag, pETM11, expressed in E. coli
T7 sequence (G2T0U7 21-454): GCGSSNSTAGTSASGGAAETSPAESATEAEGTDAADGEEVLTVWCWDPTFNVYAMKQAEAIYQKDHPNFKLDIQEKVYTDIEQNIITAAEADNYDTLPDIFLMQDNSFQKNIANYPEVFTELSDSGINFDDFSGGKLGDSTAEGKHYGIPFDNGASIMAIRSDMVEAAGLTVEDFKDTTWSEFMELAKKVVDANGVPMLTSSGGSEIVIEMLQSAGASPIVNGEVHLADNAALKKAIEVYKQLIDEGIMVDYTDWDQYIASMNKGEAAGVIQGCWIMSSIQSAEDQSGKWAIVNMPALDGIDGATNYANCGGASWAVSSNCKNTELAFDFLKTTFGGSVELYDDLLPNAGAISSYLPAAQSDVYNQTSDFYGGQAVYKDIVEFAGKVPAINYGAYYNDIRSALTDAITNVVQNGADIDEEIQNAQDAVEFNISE
The arrangement: isothermal titration calorimetry, single-site binding model. Particulars: binder; read-out: KD (μM) ITC. How it is done:
Binding of LNT, LNB, GNB, LNnT, lactose and 2′FL to RhLNBBP was measured using a Microcal ITC200 calorimeter (GE Healthcare). Titrations were performed in duplicates at 25 °C with RhLNBBP (0.1 mM) in the sample cell and 1.5 mM ligand in 10 mM sodium phosphate buffer, pH 6.5 in the syringe. A first injection of 0.4 µL was followed by 19 injections of 2 µL ligand each, separated by 180 s. Heat of dilution was determined from buffer titrations and corrected data were analysed using MicroCal Origin software v7.0. To determine binding thermodynamics a non-linear single binding model was fitted to the normalized integrated binding isotherms.

For assay [8], the target named is T8, RiFuc29 (Roseburia inulinivorans, UniProt A0ACG1Y7F2).
T8 construct: gene LK408_15425; cleavable His6 tag, pETM11, E. coli; no signal peptide; the GH29 of the GH112/GH136 locus, not that of the GH98 locus
The experiment in a line: product profile (TLC and/or MALDI-TOF MS). Type of assay: biochemical. The note with it: 50 mM MES, 150 mM NaCl, 0.005% Triton X-100, pH 6.5, 37 °C, 16 h; alpha-(1->4)-L-fucosyl removed.

For assay [9], the target named is T9, ErLnb136II, C-terminal catalytic beta-helix domain of the GH136 lacto-N-biosidase ErLnb136 from Eubacterium … (Eubacterium ramulus DSM 15684, UniProt U2PDT9 242-663, selenomethionine in the SeMet-labelled crystal (PDB 6KQS)).
T9 construct: C-terminal catalytic domain (AA 242-663, beta-helix fold) of ErLnb136, product of HMPREF0373_02965 of Eubacterium ramulus DSM 15684; In the crystal this domain is on ONE natural polypeptide with m3 (whole ErLnb136, cloned in pETM11 with a cleavable N- or C-terminal His6 tag); also called GH136II domain; source: E. coli B834 (DE3), SeMet-labelled, and E. coli BL21 ΔlacZ (DE3)/pRARE2, native
T9 sequence (looked up): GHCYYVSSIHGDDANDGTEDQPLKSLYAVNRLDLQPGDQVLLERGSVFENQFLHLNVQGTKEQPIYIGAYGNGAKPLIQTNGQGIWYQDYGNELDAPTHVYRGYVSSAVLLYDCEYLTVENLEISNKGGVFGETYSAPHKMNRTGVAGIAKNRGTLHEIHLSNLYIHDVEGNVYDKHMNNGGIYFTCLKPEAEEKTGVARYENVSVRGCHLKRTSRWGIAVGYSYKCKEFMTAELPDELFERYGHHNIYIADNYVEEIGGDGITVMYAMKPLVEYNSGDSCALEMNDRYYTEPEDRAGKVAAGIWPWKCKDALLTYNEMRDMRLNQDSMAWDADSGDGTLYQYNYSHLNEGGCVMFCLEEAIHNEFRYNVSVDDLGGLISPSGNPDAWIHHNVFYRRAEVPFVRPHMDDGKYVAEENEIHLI
In words: crystal structure; ErLnb136 (both domains on one chain) with LNB; SeMet-labelled 1.4 Å and native 2.0 Å; sitting-drop vapor diffusion at 20 °C. The note with it: both partners purified.

Where “and” joins values, the source holds several entries; their conditions need not be identical. Identical values can stand only once.

T3 sequence (A0ACG1Y7L8 entry or part of it): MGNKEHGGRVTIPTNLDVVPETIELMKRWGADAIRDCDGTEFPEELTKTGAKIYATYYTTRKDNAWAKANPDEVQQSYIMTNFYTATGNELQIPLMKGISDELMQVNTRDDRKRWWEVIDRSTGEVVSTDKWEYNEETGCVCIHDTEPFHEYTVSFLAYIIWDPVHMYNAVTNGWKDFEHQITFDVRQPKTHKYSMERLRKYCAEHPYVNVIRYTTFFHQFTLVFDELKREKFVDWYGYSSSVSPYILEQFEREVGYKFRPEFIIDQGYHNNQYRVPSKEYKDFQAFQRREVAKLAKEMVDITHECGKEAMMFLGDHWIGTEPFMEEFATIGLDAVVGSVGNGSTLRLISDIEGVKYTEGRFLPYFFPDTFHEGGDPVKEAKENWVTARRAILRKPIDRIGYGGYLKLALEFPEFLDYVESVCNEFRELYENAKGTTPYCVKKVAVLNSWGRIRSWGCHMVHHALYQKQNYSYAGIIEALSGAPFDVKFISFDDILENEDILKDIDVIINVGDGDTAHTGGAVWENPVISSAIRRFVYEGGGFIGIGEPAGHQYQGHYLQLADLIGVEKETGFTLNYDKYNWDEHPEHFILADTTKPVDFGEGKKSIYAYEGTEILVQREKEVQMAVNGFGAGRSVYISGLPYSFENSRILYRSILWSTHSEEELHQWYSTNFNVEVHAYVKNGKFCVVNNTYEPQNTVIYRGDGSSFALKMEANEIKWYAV
T5 sequence (G2T0V2 entry or part of it): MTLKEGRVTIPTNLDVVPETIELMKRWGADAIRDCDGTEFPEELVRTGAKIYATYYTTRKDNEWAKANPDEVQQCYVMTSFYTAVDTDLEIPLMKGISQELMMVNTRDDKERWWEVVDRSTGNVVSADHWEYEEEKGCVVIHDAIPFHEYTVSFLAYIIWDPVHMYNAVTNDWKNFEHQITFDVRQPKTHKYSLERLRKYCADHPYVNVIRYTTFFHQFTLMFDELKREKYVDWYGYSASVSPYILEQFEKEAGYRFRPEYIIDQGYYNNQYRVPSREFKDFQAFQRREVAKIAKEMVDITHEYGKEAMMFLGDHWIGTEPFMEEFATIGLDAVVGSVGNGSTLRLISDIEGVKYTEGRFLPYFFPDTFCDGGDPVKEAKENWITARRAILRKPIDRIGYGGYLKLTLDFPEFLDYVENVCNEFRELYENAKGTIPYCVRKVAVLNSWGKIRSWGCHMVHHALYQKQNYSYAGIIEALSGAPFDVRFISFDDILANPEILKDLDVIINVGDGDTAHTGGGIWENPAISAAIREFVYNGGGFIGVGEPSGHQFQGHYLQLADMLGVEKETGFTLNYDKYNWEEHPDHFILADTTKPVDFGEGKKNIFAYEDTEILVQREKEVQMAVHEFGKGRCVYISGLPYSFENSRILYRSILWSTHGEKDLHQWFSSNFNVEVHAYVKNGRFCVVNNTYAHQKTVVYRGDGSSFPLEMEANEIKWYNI
T6 sequence (U2PDT9 entry or part of it): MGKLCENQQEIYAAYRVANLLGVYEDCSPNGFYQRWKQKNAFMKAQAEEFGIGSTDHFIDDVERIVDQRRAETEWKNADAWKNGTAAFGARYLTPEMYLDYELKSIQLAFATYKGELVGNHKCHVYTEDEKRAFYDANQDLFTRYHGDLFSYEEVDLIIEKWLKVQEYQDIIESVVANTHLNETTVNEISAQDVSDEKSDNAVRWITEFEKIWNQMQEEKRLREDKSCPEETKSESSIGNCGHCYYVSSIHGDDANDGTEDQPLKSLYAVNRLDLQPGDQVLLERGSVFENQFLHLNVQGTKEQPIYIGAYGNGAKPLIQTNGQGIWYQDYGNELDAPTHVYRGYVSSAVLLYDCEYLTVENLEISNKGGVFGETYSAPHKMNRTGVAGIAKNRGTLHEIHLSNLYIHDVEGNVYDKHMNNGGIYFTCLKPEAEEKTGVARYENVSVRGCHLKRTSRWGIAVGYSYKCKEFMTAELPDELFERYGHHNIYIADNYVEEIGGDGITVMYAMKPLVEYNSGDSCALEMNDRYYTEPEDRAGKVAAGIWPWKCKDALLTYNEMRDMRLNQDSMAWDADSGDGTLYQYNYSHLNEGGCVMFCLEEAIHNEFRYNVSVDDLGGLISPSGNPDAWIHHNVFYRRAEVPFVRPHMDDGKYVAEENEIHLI
T8 sequence (A0ACG1Y7F2 entry or part of it): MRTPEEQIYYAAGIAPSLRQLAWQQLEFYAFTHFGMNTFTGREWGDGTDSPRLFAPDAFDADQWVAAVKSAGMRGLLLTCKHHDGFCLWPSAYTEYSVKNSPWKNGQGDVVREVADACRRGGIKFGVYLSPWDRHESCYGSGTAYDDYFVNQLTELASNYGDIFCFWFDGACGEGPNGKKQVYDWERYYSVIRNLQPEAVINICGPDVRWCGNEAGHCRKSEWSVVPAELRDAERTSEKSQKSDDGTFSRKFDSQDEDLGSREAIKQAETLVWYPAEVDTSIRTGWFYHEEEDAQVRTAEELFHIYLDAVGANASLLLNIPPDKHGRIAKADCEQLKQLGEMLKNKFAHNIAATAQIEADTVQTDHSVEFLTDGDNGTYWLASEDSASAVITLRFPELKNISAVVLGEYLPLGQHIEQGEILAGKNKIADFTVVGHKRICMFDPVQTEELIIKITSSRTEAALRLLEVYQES

What is called Kd is the free concentration of one partner at which half of the binding sites on the other are occupied at equilibrium, for simple one-to-one binding. Consider `CC(=O)N[C@H]1C(O)O[C@H](CO)[C@@H](O[C@@H]2O[C@@H](C)[C@@H](O)[C@@H](O)[C@@H]2O)[C@@H]1O[C@@H]1O[C@H](CO)[C@H](O)[C@H](O)[C@H]1O[C@@H]1O[C@@H](C)[C@@H](O)[C@@H](O)[C@@H]1O` (stereo partly drawn) [Le^b tetraose], for which the KD result in assay [1] was “Lewis b (Le^b) tetraose and Lewis a (Le^a) triose were the preferred ligand”. Further, in [2], the Kd is 1.77 µM and 1.75 µM.

In the case of `CC(=O)N[C@H]1C(O)O[C@H](CO)[C@@H](O)[C@@H]1O[C@@H]1O[C@H](CO)[C@H](O)[C@H](O)[C@H]1O` (stereo partly drawn) [LNB], the “phosphorolysis, HPAEC-PAD of Gal1P; specific activity only” value was “(RiGLnbp112) phosphorolyzes LNB and GNB equally efficiently” in [3]; “This enzyme has comparable specific activities for LNB and GNB” in [5]. Also, in assay [4], the KD entry was “shows preference to LNB followed by GNB and LNT”. Also, the X-ray crystal structure result in [6] is reported as “The LNB molecule bound in the active site is recognized by ten potential hydrogen bonds”. Also, the dissociation constant Kd is 2.64 µM and 3.12 µM in assay [7]; 6.63 µM and 6.91 µM in [2].

For the molecule `CC(=O)N[C@H]1C(O)O[C@H](CO)[C@H](O)[C@@H]1O[C@@H]1O[C@H](CO)[C@H](O)[C@H](O)[C@H]1O` (stereo partly drawn) [GNB], the “phosphorolysis, HPAEC-PAD of Gal1P; specific activity only” value in assay [3] was “(RiGLnbp112) phosphorolyzes LNB and GNB equally efficiently”; in assay [5], “This enzyme has comparable specific activities for LNB and GNB”. In addition, the KD entry in assay [4] was “shows preference to LNB followed by GNB and LNT”. Besides, the Kd in assay [7] was 10.9 µM and 11.1 µM; in assay [2], 10.8 µM and 10.2 µM.

As to `CC(=O)N[C@H]1C(O)O[C@H](CO)[C@@H](O[C@@H]2O[C@@H](C)C(O)C(O)[C@@H]2O)[C@@H]1O[C@@H]1O[C@H](CO)[C@H](O)[C@H](O)[C@H]1O` (stereo partly drawn) [Le^a triose], the “product profile (TLC and/or MALDI-TOF MS)” value in assay [8] is “complete defucosylation of putative products of RiGH136, Le^b tetraose, Le^a triose and H triose”. In addition, the KD result in assay [1] was “Lewis b (Le^b) tetraose and Lewis a (Le^a) triose were the preferred ligand”.

Regarding `CC(=O)N[C@H]1[C@H](O[C@H]2[C@@H](O)[C@@H](CO)O[C@@H](O[C@H]3[C@H](O)[C@@H](O)C(O)O[C@@H]3CO)[C@@H]2O)O[C@H](CO)[C@@H](O)[C@@H]1O[C@@H]1O[C@H](CO)[C@H](O)[C@H](O)[C@H]1O` (stereo partly drawn) [LNT], in [4], the KD result is “shows preference to LNB followed by GNB and LNT”. The dissociation constant (Kd) in [7] is 11 µM and 9.71 µM.

B1: ErLnb136I, N-terminal domain of the GH136 lacto-N-biosidase ErLnb136 from Eubacterium ramulus (domain or fragment, Eubacterium ramulus DSM 15684, UniProt U2PDT9 7-224, looked up)
chain: NQQEIYAAYRVANLLGVYEDCSPNGFYQRWKQKNAFMKAQAEEFGIGSTDHFIDDVERIVDQRRAETEWKNADAWKNGTAAFGARYLTPEMYLDYELKSIQLAFATYKGELVGNHKCHVYTEDEKRAFYDANQDLFTRYHGDLFSYEEVDLIIEKWLKVQEYQDIIESVVANTHLNETTVNEISAQDVSDEKSDNAVRWITEFEKIWNQMQEEKRLRE
modifications: selenomethionine in the SeMet-labelled crystal (PDB 6KQS)
notes: N-terminal domain (AA 7-224, eight alpha-helices, new fold) of ErLnb136, product of HMPREF0373_02965 of Eubacterium ramulus DSM 15684; residues 180-199 are disordered in the structure; In the crystal this domain is on ONE natural polypeptide with m4 (whole ErLnb136, cloned in pETM11 with a cleavable N- or C-terminal His6 tag); The linker 225-241 is disordered; also called GH136I domain; source: …
For the molecule B1, the binding result in assay [9] is on record as “binds”.
